Measured values reported in patent US11590147B2, “17-hydroxyprogesterone ester-containing oral compositions and related methods” (Lipocine Inc., priority 2015, dated 2023).
Where two headings read alike, the source gives them in different places.

What was measured:
[1] = Saxton et al. 2004; Greene NEJM; cited from earlier work
[2] = cited from earlier work
[3] = Phase 1b open-label pharmacokinetic study in healthy pregnant women (single dose data and simulated steady state); assay type: in vivo, human (pregnant women); conditions: for Cmax / AUC(0-t): female, human, in vivo, N = 7; for Cmax / AUC(0-t) / AUCSS / Css, max: pregnant women; for AUC(0-t): read-out: AUC0-24; for AUCSS / Css, max: simulated steady state; for AUCSS: 1 week duration
Protocol: Formulations (e.g., oral dosage forms like those described herein) were used in a Phase 1b open-label study that enrolled eight healthy; pregnant women at 16 to 18 weeks gestation. All subjects received three treatments in sequence. In period one, subjects received two doses of 400 mg with oral dosage forms like those described herein, administered 12 hours apart. In period two, subjects received two doses of 800 mg oral with dosage forms like those described herein, administered 12 hours apart. In period three, subjects were given 250 mg of HPC via intramuscular injection (marketed product Makena®). Blood samples were collected periodically over 24 hours following oral dosing and over 28 days following the IM dose.
Steady state pharmacokinetic parameters for oral and IM dosing regimens were simulated based on single dose data and the Cmax and […] values are shown in the table below.

[4] = oral 400 mg BID (two doses 12 hours apart)
[5] = oral 800 mg BID (two doses 12 hours apart)

Cmax [3, 4]: 21.3 ng/mL
AUC(0-t) [3, 4]: 156 ng·h/mL
Cmax [3, 5]: 63.2 ng/mL
AUC(0-t) [3, 5]: 577 ng·h/mL
absorption following oral administration ([3]; healthy pregnant women): significant HPC absorption
AUCSS ([3]; oral 400 mg BID): 1074 ng·h/mL
AUCSS ([3]; oral 800 mg BID): 4058 ng·h/mL
Css, max ([3]; oral 400 mg BID): 21.6 ng/mL
Css, max ([3]; oral 800 mg BID): 71.1 ng/mL
SMILES: CCCCCC(=O)O[C@]1(C(C)=O)CC[C@H]2[C@@H]3CCC4=CC(=O)CC[C@]4(C)[C@H]3CC[C@@]21C [Example 17HPC, 17-hydroxyprogesterone caproate]
oral activity [1]: no oral activity
solubility in water [2]: < 0.02 µg/mL
increase in exposure with dose ([3]; 800 mg dose vs 400 mg dose, oral): more than dose proportional increase in exposure
